# Experimental data: patent EP2242752B1, “[…] IMIDAZOLES AS HEPATITIS C VIRUS INHIBITORS” (Bristol-Myers Squibb Company, priority 2008, dated 2009)
# System: HCV 1b genotype
# Assay: HCV Replicon assay (HCV 16-377-neo replicon cells)
# Assay type: cell-based
# Details: Hepatitis C virus; HCV 1b genotype replicon cells; read-out: EC50 ranges against HCV 1b
# Procedure: An HCV Replion assay was utilized in the present disclosure, and was prepared, conducted and validated as described in commonly owned PCT/US2006/022197 and in O'Boyle et. al. Antimicrob Agents Chemother. 2005 Apr;49(4): 1346-53.
# HCV 16-377-neo replicon cells were used to test the currently described compound series as well as cells resistant to compound A due to a Y2065H mutation in NS5A (described in application PCT/US2006/022197). The compounds tested were determined to have more than 10-fold less inhibitory activity on cells resistant to compound A than wild-type cells indicating a related mechanism of action between the two compound series. Thus, the compounds of the present disclosure can be effective to inhibit the function of the HCV NS5A protein and are understood to be as effective in combinations as previously described in application PCT/US2006/022197 and commonly owned WO/O4014852. Further, the compounds of the present disclosure can be effective against the HCV 1b genotype. It should also be understood that the compounds of the present disclosure can inhibit multiple genotypes of HCV. […] In one embodiment compounds of the present disclosure are active against the 1a, 1b, 2a, 2b, 3a, 4a, and 5a genotypes.
row,SMILES,EC50
1,"COC(=O)N[C@H](C(=O)N1CCC[C@H]1c1nc(-c2ccc(-c3ccc(-c4[nH]c([C@@H]5CCCN5C(=O)[C@@H](NC(=O)OC)[C@@H](C)OC)nc4CC(OC)OC)cc3)cc2)c[nH]1)[C@@H](C)OC [Example J14a, methyl ((1S,2R)-1-(((2S)-2-(4-(2,2-dimethoxyethyl)-5-(4'-(2-((2S)-1-(N-(methoxycarbonyl)-O-methyl-L-threonyl)-2-pyrrolidinyl)-1H-imidazol-4-yl)-4-biphenylyl)-1H-imidazol-2-yl)-1-pyrrolidinyl)carbonyl)-2-methoxypropyl)car bamate]",0.001 to 0.999 nM
2,"Cc1nc([C@@H]2CCCN2C(=O)[C@@H](c2ccccc2)N2CCCCC2)[nH]c1-c1ccc(-c2ccc(-c3c[nH]c([C@@H]4CCCN4C(=O)[C@@H](c4ccccc4)N4CCCCC4)n3)cc2)cc1 [Example E5b, 1-((1R)-2-((2S)-2-(4-(4'-(4-methyl-2-((2S)-1-((2R)-2-phenyl-2-(1-piperidinyl)acetyl)-2-pyrrolidinyl)-1H-imidazol-5-yl)-4-biphenylyl)-1H-imidazol-2-yl)-1-pyrrolidinyl)-2-oxo-1-phenylethyl)piperidine]",0.001 to 0.999 nM
3,"COC(=O)N[C@H](C(=O)N1CCC[C@H]1c1nc(-c2ccc(-c3ccc(-c4nc([C@@H]5CCCN5C(=O)[C@@H](NC(=O)OC)C(C)C)[nH]c4C)cc3)cc2)c[nH]1)C(C)C [Example E5e, methyl ((1S)-1-(((2S)-2-(4-(4'-(2-((2S)-1-((2S)-2-((methoxycarbonyl)amino)-3-methylbutanoyl)-2-pyrrolidinyl)-1H-imidazol-4-yl)-4-biphenylyl)-5-methyl-1H-imidazol-2-yl)-1-pyrrolidinyl)carbonyl)-2-methylpropyl)carba mate]",0.001 to 0.999 nM
4,"COC(=O)N[C@@H](C(=O)N1CCC[C@H]1c1nc(C)c(-c2ccc(-c3ccc(-c4[nH]c([C@@H]5CCCN5C(=O)[C@H](NC(=O)OC)c5ccccc5)nc4C)cc3)cc2)[nH]1)c1ccccc1 [Example E5j, dimethyl (4,4'-biphenyldiylbis((4-methyl-1H-imidazole-5,2-diyl)(2S)-2,1-pyrrolidinediyl((1R )-2-oxo-1-phenyl-2,1-ethanediyl)))biscarb amate]",0.001 to 0.999 nM
5,"CCCc1nc([C@@H]2CCCN2C(=O)[C@H](C)NC(=O)OC)[nH]c1-c1ccc(-c2ccc(-c3c[nH]c([C@@H]4CCCN4C(=O)[C@H](C)NC(=O)OC)n3)cc2)cc1 [Example J14c, methyl ((1S)-2-((2S)-2-(4-(4'-(2-((2S)-1-(N-(methoxycarbonyl)-L-alanyl)-2-pyrrolidinyl)-4-propyl-1H-imidazol-5-yl)-4-biphenylyl)-1H-imidazol-2-yl)-1-pyrrolidinyl)-1-methyl-2-oxoethyl)carbamate]",0.001 to 0.999 nM
6,"CC(C)[C@H](O)C(=O)N1[C@@H](C)CC[C@H]1c1nc(-c2ccc(-c3ccc(-c4c[nH]c([C@@H]5CC[C@H](C)N5C(=O)[C@@H](O)C(C)C)n4)cc3)cc2)c[nH]1 [Example M161, (2S,2'S)-1,1'-(4,4'-biphenyldiylbis(1H-imidazole-4,2-diyl((2S,5S)-5-methyl-2,1-pyrrolidinediyl)))bis(3-methyl-1-oxo-2-butanol)]",1 to 99 nM
7,"Cc1nc([C@@H]2CCCN2C(=O)[C@@H](c2ccccc2)N(C)C)[nH]c1-c1ccc(-c2ccc(-c3[nH]c([C@@H]4CCCN4C(=O)[C@@H](c4ccccc4)N(C)C)nc3C)cc2)cc1 [Example E5g, (1R,1'R)-2,2'-(4,4'-biphenyldiylbis((4-methyl-1H-imidazole-5,2-diyl)(2S)-2,1-pyrrolidinediyl))bis (N,N-dimethyl-2-oxo-1-phenylethanamine)]",0.001 to 0.999 nM
8,"COC(=O)N[C@@H](C(=O)N1CCC[C@H]1c1nc(-c2ccc(-c3ccc(-c4nc([C@@H]5CCCN5C(=O)[C@H](NC(=O)OC)c5ccccc5)[nH]c4C)cc3)cc2)c[nH]1)c1ccccc1 [Example E5c, methyl ((1R)-2-((2S)-2-(4-(4'-(2-((2S)-1-((2R)-2-((methoxycarbonyl)amino)-2-phenylacetyl)-2-pyrrolidinyl)-1H-imidazol-4-yl)-4-biphenylyl)-5-methyl-1H-imidazol-2-yl)-1-pyrrolidinyl)-2-oxo-1-phenylethyl)carbam ate]",0.001 to 0.999 nM
9,"CC[C@H](NC(=O)OC)C(=O)N1CC2(CC2)C[C@H]1c1nc(-c2ccc(-c3ccc(-c4c[nH]c([C@@H]5CC6(CC6)CN5C(=O)[C@H](CC)NC(=O)OC)n4)cc3)cc2)c[nH]1 [Example M148, dimethyl (4,4'-biphenyldiylbis(1H-imidazole-4,2-diyl(6S)-5-azaspiro[2.4]heptane-6,5-diyl((2S)-1-oxo-1,2-butanediyl)))biscarbamate]",0.001 to 0.999 nM
10,"CC[C@H](NC(=O)OC)C(=O)N1[C@@H](C)CC[C@H]1c1nc(-c2ccc(-c3ccc(-c4c[nH]c([C@@H]5CC[C@H](C)N5C(=O)[C@H](CC)NC(=O)OC)n4)cc3)cc2)c[nH]1 [Example M154, dimethyl (4,4'-biphenyldiylbis(1H-imidazole-4,2-diyl((2S,5S)-5-methyl-2,1-pyrrolidinediyl)((2S)-1-oxo-1,2-butanediyl)))biscarbamate]",0.001 to 0.999 nM
11,"COC(=O)N[C@@H](C)C(=O)N1CCC[C@H]1c1nc(-c2ccc(-c3ccc(-c4[nH]c([C@@H]5CCCN5C(=O)[C@H](C)NC(=O)OC)nc4C)cc3)cc2)c[nH]1 [Example E5d, methyl ((1S)-2-((2S)-2-(4-(4'-(2-((2S)-1-(N-(methoxycarbonyl)-L-alanyl)-2-pyrrolidinyl)-4-methyl-1H-imidazol-5-yl)-4-biphenylyl)-1H-imidazol-2-yl)-1-pyrrolidinyl)-1-methyl-2-oxoethyl)carbamate]",0.001 to 0.999 nM
12,CC(C)[C@H](N)C(=O)N1[C@@H]2C[C@@H]2C[C@H]1c1ncc(-c2ccc(-c3ccc(-c4cnc([C@@H]5C[C@H]6C[C@H]6N5C(=O)[C@@H](N)C(C)C)[nH]4)cc3)cc2)[nH]1 [Example M140a-ii],1 to 99 nM
13,"CC(C)[C@@H](NC(=O)OC(C)(C)C)C(=O)N1[C@@H]2C[C@@H]2C[C@H]1c1nc(-c2ccc(-c3ccc(-c4c[nH]c([C@@H]5C[C@H]6C[C@H]6N5C(=O)[C@H](NC(=O)OC(C)(C)C)C(C)C)n4)cc3)cc2)c[nH]1 [Example M142, tert-butyl ((1R)-1-(((1R,3S,5R)-3-(4-(4'-(2-((1R,3S,5R)-2-((2R)-2-((tert-butoxycarbonyl)amino)-3-methylbutanoyl)-2-azabicyclo[3.1.0]hex-3-yl)-1H-imidazol-4-yl)-4-biphenylyl)-1H-imidazol-2-yl)-2-azabic yclo[3.1.0]hex-2-yl)carbonyl)-2-methylpropyl)carbamate]",1 to 99 nM
14,"CC(C)CC(=O)N1[C@@H](C)CC[C@H]1c1nc(-c2ccc(-c3ccc(-c4c[nH]c([C@@H]5CC[C@H](C)N5C(=O)CC(C)C)n4)cc3)cc2)c[nH]1 [Example M158, 4,4'-(4,4'-biphenyldiyl)bis(2-((2S,5S)-5-methyl-1-(3-methylbutanoyl)-2-pyrrolidinyl)-1H-imidazole)]",1 to 99 nM
15,"CC(=O)N[C@H](C(=O)N1[C@@H]2C[C@@H]2C[C@H]1c1ncc(-c2ccc(-c3ccc(-c4cnc([C@@H]5C[C@H]6C[C@H]6N5C(=O)[C@@H](NC(C)=O)C(C)C)[nH]4)cc3)cc2)[nH]1)C(C)C [Example M140, N((1S)-1-(((1R,3S,SR)-3-(4-(4'-(2-((1R,3S,SR)-2-((2S)-2-acetamido-3-methylbutanoyl)-2-azabicyclo[3.1.0]hex-3-yl)-1H-imidazol-4-yl)-4-biphenylyl)-1H imidazol-2-yl)-2-azabicyclo[3.1.0]hex-2-yl)carbonyl)-2-methylpropyl)acetamide]",0.001 to 0.999 nM
16,"COC(=O)N[C@H](C(=O)N1[C@@H]2C[C@@H]2C[C@H]1c1nc(-c2ccc(-c3ccc(-c4c[nH]c([C@@H]5C[C@H]6C[C@H]6N5C(=O)[C@@H](NC(=O)OC)C5CC5)n4)cc3)cc2)c[nH]1)C1CC1 [Example M135, dimethyl (4,4'-biphenyldiylbis(1H-imidazole-4,2-diyl(1R,3S,5R)-2-azabicyclo[3.1.0]hexane-3,2-diyl((1S)-1-cyclopropyl-2-oxo-2,1-ethanediyl)))biscarbamate]",0.001 to 0.999 nM
17,"COC(=O)N[C@H](C(=O)N1CC(F)(F)C[C@H]1c1nc(-c2ccc(-c3ccc(-c4c[nH]c([C@@H]5CCCN5C(=O)[C@@H](NC(=O)OC)C(C)C)n4)c(F)c3)cc2)c[nH]1)C(C)C [Example J14e, methyl ((1S)-1-(((2S)-4,4-difluoro-2-(4-(3'-fluoro-4'-(2-((2S)-1-((2S)-2-((methoxycarbonyl)amino)-3-methylbutanoyl)-2-pyrrolidinyl)-1H-imidazol-4-yl)-4-biphenylyl)-1H-imidazol-2-yl)-1-pyrrolidinyl)carbonyl)-2-methylpropyl)carba mate]",0.001 to 0.999 nM
18,"CCN(CC)[C@@H](C(=O)N1CCC[C@H]1c1nc(-c2ccc(-c3ccc(-c4nc([C@@H]5CCCN5C(=O)[C@@H](c5ccccc5)N(CC)CC)[nH]c4C)cc3)cc2)c[nH]1)c1ccccc1 [Example E5a, (1R)-2-((2S)-2-(4-(4'-(2-((2S)-1-((2R)-2-(diethylamino)-2-phenylacetyl)-2-pyrrolidinyl)-1H-imidazol-4-yl)-4-biphenylyl)-5-methyl-1H-imidazol-2-yl)-1-pyrrolidinyl)-N,N-diethyl-2-oxo-1-phenylethanamine]",0.001 to 0.999 nM
